Data on two molecules can be found in patent publication US20240109969A1, “Dosing Regimen for Therapies Comprising Bispecific Anti-EGFR/C-Met Antibodies” (Janssen Biotech, Inc., priority 2022, published 2024).

One data set addresses P-glycoprotein (P-gp) (Homo sapiens, UniProt P08183). The following applies: cited from earlier work.
Data set [1] has as its target T1, Organic Cation Transporter 1 (OCT1) (Homo sapiens, UniProt O15245).
T1 sequence (O15245 1-554): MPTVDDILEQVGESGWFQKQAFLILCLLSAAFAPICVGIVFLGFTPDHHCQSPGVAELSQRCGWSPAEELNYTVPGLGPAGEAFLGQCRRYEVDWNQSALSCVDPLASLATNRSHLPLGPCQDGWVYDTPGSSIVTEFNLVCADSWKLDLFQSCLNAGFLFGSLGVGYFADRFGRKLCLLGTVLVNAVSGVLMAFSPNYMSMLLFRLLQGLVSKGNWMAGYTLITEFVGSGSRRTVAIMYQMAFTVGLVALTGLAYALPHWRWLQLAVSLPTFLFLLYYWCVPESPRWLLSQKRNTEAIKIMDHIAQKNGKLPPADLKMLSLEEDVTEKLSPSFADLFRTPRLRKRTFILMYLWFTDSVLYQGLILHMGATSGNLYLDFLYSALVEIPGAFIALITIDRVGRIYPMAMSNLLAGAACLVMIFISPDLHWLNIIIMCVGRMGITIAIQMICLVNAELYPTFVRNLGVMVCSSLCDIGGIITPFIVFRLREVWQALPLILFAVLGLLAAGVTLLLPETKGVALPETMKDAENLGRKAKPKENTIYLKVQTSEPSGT
The following applies: cited from earlier work.

The target of data set [2] is T2, multidrug resistance protein 4 (MRP4) (Homo sapiens, UniProt O15439).
T2 sequence (O15439 1-1325): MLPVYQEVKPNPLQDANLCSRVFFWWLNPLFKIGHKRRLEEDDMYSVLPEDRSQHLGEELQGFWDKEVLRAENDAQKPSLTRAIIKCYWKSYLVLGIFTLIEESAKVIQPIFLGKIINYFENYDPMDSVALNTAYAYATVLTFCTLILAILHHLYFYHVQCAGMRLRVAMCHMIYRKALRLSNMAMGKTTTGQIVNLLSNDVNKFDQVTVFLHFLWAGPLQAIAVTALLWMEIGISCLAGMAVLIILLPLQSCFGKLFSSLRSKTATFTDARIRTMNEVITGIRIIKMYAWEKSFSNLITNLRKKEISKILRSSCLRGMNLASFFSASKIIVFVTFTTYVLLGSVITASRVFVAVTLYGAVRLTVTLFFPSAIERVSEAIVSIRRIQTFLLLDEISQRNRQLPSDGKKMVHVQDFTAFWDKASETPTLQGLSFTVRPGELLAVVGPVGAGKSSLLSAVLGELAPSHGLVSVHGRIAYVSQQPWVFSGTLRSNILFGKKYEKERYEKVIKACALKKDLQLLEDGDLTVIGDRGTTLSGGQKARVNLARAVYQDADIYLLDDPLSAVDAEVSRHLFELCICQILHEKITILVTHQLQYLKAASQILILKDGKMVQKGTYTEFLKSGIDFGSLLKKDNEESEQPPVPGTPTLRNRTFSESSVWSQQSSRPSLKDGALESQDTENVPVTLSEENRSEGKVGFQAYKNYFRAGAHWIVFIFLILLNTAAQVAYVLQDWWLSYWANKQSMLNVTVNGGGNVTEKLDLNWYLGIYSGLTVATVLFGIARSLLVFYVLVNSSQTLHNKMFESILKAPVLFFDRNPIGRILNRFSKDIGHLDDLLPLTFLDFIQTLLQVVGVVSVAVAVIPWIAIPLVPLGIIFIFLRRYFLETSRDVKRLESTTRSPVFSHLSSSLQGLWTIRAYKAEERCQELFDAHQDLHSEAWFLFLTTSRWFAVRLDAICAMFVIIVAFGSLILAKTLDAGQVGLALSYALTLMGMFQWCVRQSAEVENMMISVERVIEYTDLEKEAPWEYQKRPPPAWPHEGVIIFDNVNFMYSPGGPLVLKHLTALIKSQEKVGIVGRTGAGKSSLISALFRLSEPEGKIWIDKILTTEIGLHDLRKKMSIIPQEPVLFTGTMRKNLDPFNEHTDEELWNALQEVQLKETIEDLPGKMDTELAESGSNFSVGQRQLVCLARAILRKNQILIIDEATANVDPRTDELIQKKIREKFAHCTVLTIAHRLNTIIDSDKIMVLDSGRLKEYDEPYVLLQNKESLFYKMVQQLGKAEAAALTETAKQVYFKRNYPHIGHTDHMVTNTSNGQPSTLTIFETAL
The following applies: cited from earlier work.

Data set [3] addresses T3, breast cancer resistance protein (BCRP) (Homo sapiens, UniProt Q9UNQ0).
T3 sequence (Q9UNQ0 1-655): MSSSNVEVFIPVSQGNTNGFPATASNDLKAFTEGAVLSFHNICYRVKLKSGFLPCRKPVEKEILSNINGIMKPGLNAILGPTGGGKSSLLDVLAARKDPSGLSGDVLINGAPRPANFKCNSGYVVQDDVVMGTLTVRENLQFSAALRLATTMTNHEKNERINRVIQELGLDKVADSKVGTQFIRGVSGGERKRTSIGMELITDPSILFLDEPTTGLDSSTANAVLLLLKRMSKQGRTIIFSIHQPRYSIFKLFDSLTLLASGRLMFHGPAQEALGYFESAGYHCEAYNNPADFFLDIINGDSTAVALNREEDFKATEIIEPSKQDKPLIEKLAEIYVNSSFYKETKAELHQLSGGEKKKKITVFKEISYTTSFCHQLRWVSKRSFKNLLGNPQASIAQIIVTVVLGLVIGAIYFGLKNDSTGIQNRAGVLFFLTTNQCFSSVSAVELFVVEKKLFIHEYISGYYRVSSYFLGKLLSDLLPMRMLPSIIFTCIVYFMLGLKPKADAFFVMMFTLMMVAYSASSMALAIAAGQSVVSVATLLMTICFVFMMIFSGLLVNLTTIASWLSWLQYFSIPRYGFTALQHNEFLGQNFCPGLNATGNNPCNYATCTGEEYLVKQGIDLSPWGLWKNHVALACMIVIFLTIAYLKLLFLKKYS
The settings on record: cited from earlier work.

Entries after “also recorded” stand apart in the source; their conditions may differ.

P-glycoprotein (P-gp), sequence (P08183 whole entry): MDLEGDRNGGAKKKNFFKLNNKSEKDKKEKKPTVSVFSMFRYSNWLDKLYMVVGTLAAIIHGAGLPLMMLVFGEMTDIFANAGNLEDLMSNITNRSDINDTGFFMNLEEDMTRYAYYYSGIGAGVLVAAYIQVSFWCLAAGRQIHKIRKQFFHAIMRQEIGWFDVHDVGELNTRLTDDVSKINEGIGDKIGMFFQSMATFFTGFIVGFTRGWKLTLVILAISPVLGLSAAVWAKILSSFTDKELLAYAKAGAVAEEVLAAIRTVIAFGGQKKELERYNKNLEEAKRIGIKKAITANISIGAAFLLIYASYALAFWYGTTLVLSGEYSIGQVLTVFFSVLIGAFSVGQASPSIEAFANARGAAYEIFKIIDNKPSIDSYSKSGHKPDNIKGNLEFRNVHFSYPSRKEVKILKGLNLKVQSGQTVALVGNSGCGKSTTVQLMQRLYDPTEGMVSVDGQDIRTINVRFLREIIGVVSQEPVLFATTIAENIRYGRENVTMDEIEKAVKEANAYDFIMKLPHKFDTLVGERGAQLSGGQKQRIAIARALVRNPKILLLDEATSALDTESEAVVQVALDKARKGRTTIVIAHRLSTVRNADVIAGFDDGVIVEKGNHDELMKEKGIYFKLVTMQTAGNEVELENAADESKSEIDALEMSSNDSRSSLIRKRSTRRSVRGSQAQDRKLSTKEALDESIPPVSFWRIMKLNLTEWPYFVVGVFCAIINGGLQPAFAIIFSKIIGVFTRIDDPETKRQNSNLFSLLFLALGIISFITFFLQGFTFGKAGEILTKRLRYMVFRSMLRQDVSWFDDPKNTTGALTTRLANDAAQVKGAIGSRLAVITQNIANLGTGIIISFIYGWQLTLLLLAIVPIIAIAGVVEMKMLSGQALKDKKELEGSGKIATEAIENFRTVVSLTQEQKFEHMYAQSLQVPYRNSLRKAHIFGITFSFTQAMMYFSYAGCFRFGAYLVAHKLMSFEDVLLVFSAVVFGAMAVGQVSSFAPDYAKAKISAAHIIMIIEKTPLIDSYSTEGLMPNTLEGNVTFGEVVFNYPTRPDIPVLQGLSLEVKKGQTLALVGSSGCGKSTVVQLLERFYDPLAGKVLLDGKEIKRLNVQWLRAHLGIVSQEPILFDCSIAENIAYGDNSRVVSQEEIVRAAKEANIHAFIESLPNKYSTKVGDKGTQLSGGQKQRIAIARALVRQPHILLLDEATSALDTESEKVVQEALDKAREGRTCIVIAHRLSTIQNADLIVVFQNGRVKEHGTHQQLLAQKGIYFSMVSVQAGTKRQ

`C=CC(=O)Nc1cc(Nc2nccc(-n3cc(CN(C)C)c(-c4ccccc4)n3)n2)c(OC)cc1N1CCOCC1` [Lazertinib, N-(5-(4-(4-((dimethylamino)methyl)-3-phenyl-1H-pyrazol-1-yl)pyrimidin-2-ylamino)-4-methoxy-2-morpholinophenyl)acrylamide]: the “inhibition of P-gp” value at P-glycoprotein (P-gp) is listed as “inhibitor”. In addition, the “inhibition of OCT1” value in data set [1] is “inhibitor”. The “inhibition of MRP4” value in data set [2] is on record as “inhibitor”. In addition, the “inhibition of BCRP” value in data set [3] is “inhibitor”.
Regarding amivantamab, the “impact of chemotherapy on amivantamab exposure” value (preliminary cycle 1 PK data (n=9), FIG. 3A-C) was “no impact; also recorded: not impacted”. For the same molecule, the “amivantamab trough concentration / exposure, Q3W (21-day cycle) versus monotherapy Q2W (28-day cycle, 1050/1400 mg)” value (preliminary, FIG. 4A-B) was “Similar”.
